# Reference: patent US20250302842A1, “HETEROCYCLIC COMPOUNDS USEFUL FOR TREATMENT OF CANCERS” (JUBILANT EPIPAD LLC, priority 2020, published 2025)
# Columns and labels:
# PAD4 enzyme [1] = molecular target: T1, PAD4 enzyme (Homo sapiens (Human), UniProt Q9UM07); assay: Ammonia Release Biochemical Assay (citrullination detected via ammonia release); conditions: BAEE substrate, 60-min preincubation, read-out: NH3 release
# Description: Ammonia Release Biochemical Assay
# Citrullination assay was detected via ammonia release. PAD4 enzyme was diluted to 120 nM in assay buffer (100 mM HEPES, 50 mM NaCl, 2 mM DDT, 0.6 mg/mL BSA, pH 7.4) added to wells containing various concentration of compound or DMSO vehicle (1% final) in black 384 well plate. Following a 60-min preincubation at room temperature, the reaction was initiated by the addition of substrate (1.5 mM BAEE in 200 mM HEPES, 50 mM NaCl, 350 uM CaCl2, 2 mM, pH 7.4). The reaction was stopped after 60 min by addition of stop/detection buffer containing 50 mM EDTA, 2.6 mM of o-phthaladehyde and 2.6 mM DTT. Assay was incubated at room temperature for 90 min before measuring fluorescence's (2ex 405/2em 460 nm) on Tecan reader. IC50 was calculated using XL-fit software model 205. (Ref: Nat Chem Biol. 2015 March;11 (3): 189-91).
# PAD4 enzyme [2] = molecular target: T1, PAD4 enzyme; assay: FP Binding assay; conditions: fluorescein labelled probe JPAD-00085, 60 minutes
# Description: Binding of compounds with PAD4 enzyme was detected by FP assay. PAD4 enzyme was diluted to 1 uM in assay buffer (100 mM HEPES, 50 mM NaCl, 1 mM DTT, 5% Glycerol and 1 mM CHAPS) and added to wells containing various concentration of compounds or DMSO vehicle (1%) in a 384 well black plate. 10 nM of fluorescein labelled probe (JPAD-00085) was added to the plate. Assay plate was incubated for 60 minutes at room temperature before measuring FP reading at FP module (ex 485/2em 535 nm) on Pherastar. IC50 was calculated using XL-fit software model 205. (Ref: Nat Chem Biol. 2015 March; 11 (3): 189-91).
# T1 sequence (Q9UM07 whole entry): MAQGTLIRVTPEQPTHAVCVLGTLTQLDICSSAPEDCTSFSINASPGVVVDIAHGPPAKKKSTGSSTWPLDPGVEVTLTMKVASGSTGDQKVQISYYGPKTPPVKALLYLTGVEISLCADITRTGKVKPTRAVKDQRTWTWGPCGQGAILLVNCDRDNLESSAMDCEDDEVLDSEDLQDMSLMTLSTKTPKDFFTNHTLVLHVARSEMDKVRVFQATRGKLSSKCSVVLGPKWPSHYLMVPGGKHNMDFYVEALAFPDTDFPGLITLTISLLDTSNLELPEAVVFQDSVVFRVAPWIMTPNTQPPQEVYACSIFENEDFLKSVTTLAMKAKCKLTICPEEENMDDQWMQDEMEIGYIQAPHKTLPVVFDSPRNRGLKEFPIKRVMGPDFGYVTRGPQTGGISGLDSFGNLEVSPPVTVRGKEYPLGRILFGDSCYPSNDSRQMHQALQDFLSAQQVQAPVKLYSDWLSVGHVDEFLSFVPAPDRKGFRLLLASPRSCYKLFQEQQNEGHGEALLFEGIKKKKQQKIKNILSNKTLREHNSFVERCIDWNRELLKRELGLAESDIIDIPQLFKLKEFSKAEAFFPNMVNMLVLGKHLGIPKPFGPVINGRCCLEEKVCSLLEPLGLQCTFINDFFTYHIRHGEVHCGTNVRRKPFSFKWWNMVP
SMILES,IC50 (PAD4 enzyme [1]),IC50 (PAD4 enzyme [2])
"N[C@@H]1CCCN(C(=O)c2cc3c4c(c2)nc(-c2cc5ccccc5n2CC2CC2)n4CCO3)C1 [Example 1, (R)-(3-aminopiperidin-1-yl)(2-(1-(cyclopropylmethyl)-1H-indol-2-yl)-3,4-dihydro-5-oxa-1,2a-diazaacenaphthylen-7-yl)methanone]",≤ 1 µM,–
"NCC1CCCCN1C(=O)c1cc2c3c(c1)nc(-c1cc4ccccc4n1CC1CC1)n3CCO2 (stereo not shown) [Example 4, (2-(aminomethyl)piperidin-1-yl)(2-(1-(cyclopropylmethyl)-1H-indol-2-yl)-3,4-dihydro-5-oxa-1,2a-diazaacenaphthylen-7-yl)methanone]",–,≥ 10 µM
"Cc1cccc2cc(-c3nc4cc(C(=O)N5CCC[C@@H](N)C5)cc5c4n3CCO5)n(CC3CC3)c12 [Example 8, (R)-(3-aminopiperidin-1-yl)(2-(1-(cyclopropylmethyl)-7-methyl-1H-indol-2-yl)-3,4-dihydro-5-oxa-1,2a-diazaacenaphthylen-7-yl)methanone]",–,≤ 1 µM
"N[C@@H]1CCCN(C(=O)c2cc3c4c(c2)nc(-c2cc5ccccc5n2Cc2ccncc2)n4CCO3)C1 [Example 10, (R)-(3-aminopiperidin-1-yl)(2-(1-(pyridin-4-ylmethyl)-1H-indol-2-yl)-3,4-dihydro-5-oxa-1,2a-diazaacenaphthylene-7-yl)methanone]",–,≤ 1 µM
"N[C@@H]1CCCN(C(=O)c2cc3c4c(c2)nc(-c2cc5ccccc5n2Cc2ccccn2)n4CCO3)C1 [Example 11, (R)-(3-aminopiperidin-1-yl)(2-(1-(pyridine-2-ylmethyl)-1H-indol-2-yl)-3,4-dihydro-5-oxa-1,2a-diazaacenaphthylen-7-yl)methanone]",–,≤ 1 µM
"CCc1c(-c2nc3cc(C(=O)N4CCC[C@@H](N)C4)cc4c3n2CCO4)sc2ccccc12 [Example 12, (R)-(3-aminopiperidin-1-yl)(2-(3-ethylbenzo[b]thiophen-2-yl)-3,4-dihydro-5-oxa-1,2a-diazaacenaphthylen-7-yl)methanone]",–,≤ 1 µM
"N[C@@H]1CCCN(C(=O)c2cc3c4c(c2)nc(-c2cc5ccccc5n2Cc2ccccc2F)n4CCO3)C1 [Example 14, (R)-(3-aminopiperidin-1-yl)(2-(1-(2-fluorobenzyl)-1H-indol-2-yl)-3,4-dihydro-5-oxa-1,2a-diazaacenaphthylene-7-yl)methanone]",–,≤ 1 µM
"COc1ccc(Cn2c(-c3nc4cc(C(=O)N5CCC[C@@H](N)C5)cc5c4n3CCO5)cc3ccccc32)cc1 [Example 19, (R)-(3-aminopiperidin-1-yl)(2-(1-(4-methoxybenzyl)-1H-indol-2-yl)-3,4-dihydro-5-oxa-1,2a-diazaacenaphthylen-7-yl)methanone]",–,≤ 1 µM
"COc1ccc(Cn2c(-c3nc4cc(C(=O)N5CCC[C@@H](N)C5)cc5c4n3CCO5)cc3cccc(Cl)c32)cc1 [Example 39, (R)-(3-aminopiperidin-1-yl)(2-(7-chloro-1-(4-methoxybenzyl)-1H-indol-2-yl)-3,4-dihydro-5-oxa-1,2a-diazaacenaphthylen-7-yl)methanone]",≤ 1 µM,–
"N[C@@H]1CCCN(C(=O)c2cc3c4c(c2)nc(-c2cc5ccccc5n2CC2CCC2)n4CCO3)C1 [Example 41, (R)-(3-aminopiperidin-1-yl)(2-(1-(cyclobutylmethyl)-1H-indol-2-yl)-3,4-dihydro-5-oxa-1,2a-diazaacenaphthylen-7-yl)methanone]",≤ 1 µM,–
"N[C@@H]1CCCN(C(=O)c2cc3c4c(c2)nc(-c2cc5cccc(Cl)c5n2CC2CCC2)n4CCO3)C1 [Example 53, (R)-(3-aminopiperidin-1-yl)(2-(7-chloro-1-(cyclobutylmethyl)-1H-indol-2-yl)-3,4-dihydro-5-oxa-1,2a-diazaacenaphthylen-7-yl)methanone]",≤ 1 µM,–
"N[C@@H]1CCCN(C(=O)c2cc3c4c(c2)nc(-c2cc5ccccc5n2CC2CC2)n4CCN3)C1 [Example 63, (R)-(3-aminopiperidin-1-yl)(2-(1-(cyclopropylmethyl)-1H-indol-2-yl)-5,6-dihydro-4H-imidazo[1,5,4-de]quinoxalin-8-yl)methanone]",–,≤ 1 µM
"N[C@@H]1CCCN(C(=O)c2cc3c4c(c2)nc(-c2cc5cc(F)ccc5n2CC2CC2)n4CCN3)C1 [Example 64, R-(3-aminopiperidin-1-yl)(2-(1-(cyclopropylmethyl)-5-fluoro-1H-indol-2-yl)-5,6-dihydro-4H-imidazo[1,5,4-de]quinoxalin-8-yl)methanone]",–,≤ 1 µM
"CN1CCn2c(-c3cc4ccccc4n3CC3CC3)nc3cc(C(=O)N4CCC[C@@H](N)C4)cc1c32 [Example 72, R-(3-aminopiperidin-1-yl)(2-(1-(cyclopropylmethyl)-1H-indol-2-yl)-6-methyl-5,6-dihydro-4H-imidazo[1,5,4-de]quinoxalin-8-yl)methanone]",–,≤ 1 µM
"COc1ccc2cc(-c3nc4cc(C(=O)N5CCC[C@@H](N)C5)cc5c4n3CCN5)n(CC3CC3)c2c1 [Example 73, (R)-(3-aminopiperidin-1-yl)(2-(1-(cyclopropylmethyl)-6-methoxy-1H-indol-2-yl)-5,6-dihydro-4H-imidazo[1,5,4-de]quinoxalin-8-yl)methanone]",–,≤ 1 µM
"N[C@@H]1CCCN(C(=O)c2cc3c4c(c2)nc(-c2cc5cc(F)c(F)cc5n2CC2CC2)n4CCN3)C1 [Example 77, (R)-(3-aminopiperidin-1-yl)(2-(1-(cyclopropylmethyl)-5,6-difluoro-1H-indol-2-yl)-5,6-dihydro-4H-imidazo[1,5,4-de]quinoxalin-8-yl)methanone]",–,≤ 1 µM
